Entries after “also recorded” stand apart in the source; their conditions may differ.
How the values were obtained:
[1] = Tolerability when given intravenously; format: in vivo
rabbit hearts (in vivo) = assay: Limitation of infarct size in rabbit hearts in vivo (open-chest rabbits), drug at reperfusion; set-up: species or system New Zealand White rabbits
Experimental: Rabbits (New Zealand White rabbits of either sex weighing 1.6 to 3.0 kg) were anesthetized with sodium pentobarbital (30 mg/kg) which was subsequently supplemented as needed. Positive pressure ventilation with 100% oxygen was instituted. The heart was exposed through a left thoracotomy and a ligature was passed under a coronary branch to create the ischemia. Drug was given intravenously in a dose of 10 μg/kg over 1 min starting 5 min prior to reperfusion and again 15 min after reperfusion. The heart was removed after 3 hr of reperfusion. The risk zone was stained with fluorescent microspheres, then the heart was sliced into 2 mm sections and the infarct size was determined by tetrazolium staining.
Postconditioning is an established cardioprotective intervention where the occluded artery is intermittently opened and closed for four 30-second cycles at the end of the ischemic insult.

isolated rabbit hearts = assay: Limitation of infarct size in isolated buffer-perfused rabbit hearts, drug at reperfusion
Experimental: The quantification of infarct size and experimental design followed the protocol described by Zhang et al., J Cardiovasc Pharmacol 42, 2003.
Hearts were quickly removed from anesthetized rabbits and perfused with Krebs buffer. […] The risk zone was stained with fluorescent microspheres, then the heart was sliced into 2 mm sections and the infarct size was visualized by tetrazolium staining. The drug was mixed with the perfusate at 50 μg/L starting 5 min prior to reperfusion and continuing for 55 min. […] Ischemic preconditioning is the most powerful cardioprotective intervention known but of no practical value clinically.

Compound | tolerability [1] | infarct size limitation compared with postconditioning (rabbit hearts (in vivo); 10 μg/kg i.v. 5 min prior to and 15 min after reperfusion) | reduction of infarct size (rabbit hearts (in vivo); 10 μg/kg i.v. 5 min prior to and 15 min after reperfusion, 30 min regional ischemia, 3 hr reperfusion) [%] | adverse hemodynamic effects (rabbit hearts (in vivo); 10 μg/kg i.v., open-chest rabbits) | reduction of infarct size (isolated rabbit hearts; 50 μg/L in perfusate from 5 min prior to reperfusion for 55 min, 30 min ischemia, 2 hr reperfusion) [%] | protection compared with ischemic preconditioning (IPC) (isolated rabbit hearts; 50 μg/L, IPC = 5 min ischemia and 10 min reperfusion) | infarct size in % of risk area, untreated hearts in comparison to treated hearts (isolated rabbit hearts; 50 μg/L, p=0.032)
N#Cc1c(N)nc(SCC(N)=O)c(C#N)c1-c1ccc(OCC2CC2)cc1 [Compound B, 2-({6-Amino-3,5-dicyano-4-[4-(cyclopropylmethoxy)phenyl]pyridin-2-yl}thio)acetamide] | well tolerated | equivalent to postconditioning in its potency; also recorded: as effective as postconditioning | > 50 | No adverse hemodynamic effects | – | – | –
N#Cc1c(N)nc(SCC(N)=O)c(C#N)c1-c1ccc(O)cc1 [Compound A, 2-{[6-Amino-3,5-dicyano-4-(4-hydroxyphenyl)pyridin-2-yl]thio}acetamide] | – | – | – | – | ~50 | not as protective as ischemic preconditioning | significantly larger

Source: patent US20090221649A1, “Use of substituted 2-thio-3,5-dicyano-4-phenyl-6-aminopyridines for the treatment of reperfusion injury and reperfusion damage” (Bayer HealthCare AG, priority 2005, published 2009)
